Data from PMC8391127, “Triterpenoid–PEG Ribbons Targeting Selectivity in Pharmacological Effects” (Biomedicines, 2021).
Like-named read-outs stand apart in the source and are kept apart here. Marks after values point to notes of the source that are not given here.

How the values were obtained:
[1] = Ability to form supramolecular gel; format: physicochemical; conditions: 1% w/v in solvent, ultrasound 30 min, heated to boiling, cooled to r.t. 24 h
Method: The solutions of the studied compounds 8a, 12a, 8b, 12b, 4c, 6c, 6d, and 8d (1%, w/v) in the appropriate solvent were mixed with ultrasound for 30 min, then heated to the boiling points of the used solvents, and then allowed to cool down to the r.t. for 24 h. An example of the resulting gels that were produced from 8a, 4c, 6c, and 6d is shown in the Supplementary Material, Figure S1.

[2] = tested on: Enterococcus faecalis; assay: Antimicrobial screening, resazurine test; format: cell-based; conditions: Enterococcus faecalis, E. faecalis, read-out: Inhibition of the microorganism; for inhibition at 25 µg/mL: c = 25 µg·mL-1; for inhibition at 50 µg/mL: c = 50 µg·mL-1; for inhibition at 100 µg/mL: c = 100 µg·mL-1
Method: (§1) The resazurine test was used to evaluate this activity.
(§2) The cell inoculum was made in Mueller–Hinton broth (10 mL). Colonies of cells were inoculated from the solid medium that was cultivated for 24 h under optimum conditions. A part of the inoculum was diluted to get suspension with an optical density 0.6 to 0.9 McF. An aliquot amount (1 mL) was taken and diluted with additional volume of the medium (19 mL). The stored solutions of the tested compounds were made at a concentration c = 200 µg.mL^−1. The stored suspensions of the cells, MHB medium, solutions of the antibiotics specific for the given bacteria (vancomycin for S. aureus and E. faecalis, kanamycin for E. coli and P. aeruginosa, and tetracycline for B. cereus), and the solutions of the compounds were pipetted into the microtitration plates. Subsequently, a concentration sequence of the tested compounds was made (c = 100, 50, and 25 µg.mL^−1). The content of the microtitration plates was cultivated for 24 h under optimum conditions for the given bacteria. A solution of resazurine was made, based on a dilution of its stored solution (c = 0.15 mg.mL^−1; 2 mL) into the MHB medium (18 mL). Then, it was pipetted into the microtitration plates that were cultivated for an additional 1 h. Finally, fluorescence measurement (excitation at 560 nm, emission at 590 nm) was made, and the inhibition of the bacterium was determined.
(§3) 2. Antimicrobial screening tests
(§4) Antimicrobial activity of the target molecular ribbons 8a, 12a, 8b, 12b, 4c, 6c, 6d and 8d, and […]
(§5) aeruginosa, Staphylococcus aureus and Enterococcus faecalis. The resazurine test was used to […]
(§6) ribbons which have been achieved in this investigation.
(§7) Table S1. Antimicrobial activity, inhibition of the microorganism [%]
(§8) Comp. Staphylococcus aureus Comp. Escherichia coli […]
(§9) µg·mL-1 µg·mL-1 µg·mL-1 µg·mL-1 µg·mL-1 µg·mL-1
(§10) Comp. Bacillus cereus Comp. Pseudomonas aeruginosa

[3] = tested on: Staphylococcus aureus; assay: Antimicrobial screening, resazurine test; format: cell-based; conditions: S. aureus; for inhibition at 25 µg/mL / inhibition at 50 µg/mL / inhibition at 100 µg/mL: Staphylococcus aureus, read-out: Inhibition of the microorganism; for inhibition at 50 µg/mL: c = 50 µg·mL-1; for inhibition at 100 µg/mL: c = 100 µg·mL-1
Method: as §1, §2, §3, §4, §5, §6, §7, §8, §9, §10

[4] = tested on: Bacillus cereus; assay: Antimicrobial screening, resazurine test; format: cell-based; conditions: Bacillus cereus, B. cereus, read-out: Inhibition of the microorganism; for inhibition at 25 µg/mL: c = 25 µg·mL-1; for inhibition at 50 µg/mL: c = 50 µg·mL-1; for inhibition at 100 µg/mL: c = 100 µg·mL-1
Method: as §1, §2, §3, §4, §5, §6, §7, §8, §9, §10

[5] = tested on: Pseudomonas aeruginosa; assay: Antimicrobial screening, resazurine test; format: cell-based; conditions: P. aeruginosa; for inhibition at 25 µg/mL: c = 25 µg·mL-1, read-out: Inhibition of the microorganism; for inhibition at 50 µg/mL: c = 50 µg·mL-1, read-out: Inhibition of the microorganism; for inhibition at 100 µg/mL: c = 100 µg·mL-1, read-out: Inhibition of the microorganism
Method: as §1, §2, §3, §4, §5, §6, §7, §8, §9, §10

[6] = tested on: Escherichia coli; assay: Antimicrobial screening, resazurine test; format: cell-based; conditions: E. coli; for inhibition at 25 µg/mL / inhibition at 50 µg/mL / inhibition at 100 µg/mL: Escherichia coli, read-out: Inhibition of the microorganism; for inhibition at 50 µg/mL: c = 50 µg·mL-1; for inhibition at 100 µg/mL: c = 100 µg·mL-1
Method: as §1, §2, §3, §4, §5, §6, §7, §8, §9, §10

[7] = Cytotoxicity screening test, reference cells; format: cell-based; conditions: BJ foreskin fibroblasts; BJ human fibroblasts
Description: (§11) Description of the experimental procedure used in the cytotoxicity screening test was already published. The following cancer cell lines were used in the investigation: T-lymphoblastic leukemia, CEM; breast carcinoma, MCF7; cervical carcinoma, HeLa; and malignant melanoma, G-361. Human foreskin fibroblasts, BJ, were used as reference cells. All of the above cell lines were obtained from the American Type Culture Collection (Manassas, VA, USA). African green monkey kidney Vero cells were obtained from the European Collection of Cell Cultures (Salisbury, UK) and human T-cell leukemia MT-4 cells were obtained through the NIH AIDS Reagent Program, Division of AIDS, NIAID, NIH, from Dr. Douglas Richman. All cells, but MT-4 cells, were cultured in DMEM (Dulbecco’s Modified Eagle Medium, Sigma, St. Louis, MO, USA). MT-4 cells were maintained in RPMI1640 medium. Media used were supplemented with 10% fetal bovine serum, 2 mM L-glutamine, and 1% penicillin–streptomycin (all Sigma, St. Louis, MO, USA). The cell lines were maintained under standard cell culture conditions at 37 °C and 5% CO2 in a humid environment. Cells were subcultured twice or three times a week using the standard trypsinization procedure.

[8] = Self-assembly by UV-VIS spectrometry in methanol/water mixtures; format: physicochemical; conditions: 0-140 h
Method: The self-assembly of the selected compounds 8a, 12a, 8b, 12b, 4c, 6c, 6d, and 8d was measured using UV absorption in methanol/water mixtures with a constant concentration of the studied compound for 7 days in one-hour intervals on the first day, and in 24 h intervals all following days. The stock solutions of the studied compounds were prepared at a concentration of 1 mg·mL^−1 in water. Then, a series of methanol/water mixtures were prepared starting from a methanol/water ratio 100/0 down to 0/100 in 20% steps. The stock solutions of the studied compounds (0.15 mL) were added separately to each vial containing methanol/water mixtures (3 mL), and the UV spectra were recorded in the wavelength range of 200–400 nm. […] For the compounds 8a, 12a, 12b and 6d, the details are presented in the Supplementary Material; see Figure S2.
Supramolecular self-assembly was studied on the basis of the UV-VIS spectra of the compounds in several methanol/water mixtures stepwise during the time interval 0-140 h. Here we show compounds 8a, 12a, 12b and 6d as examples, with which the irregularities in the UV-VIS spectra were either well pronounced (8a and 12a; Figure S2), or no substantial irregularity was detected (12b and 6d).
Figure S2. UV-VIS spectra of 8a (top) and 12a (bottom) measured in the interval 0-140 h.
During that time interval a new maximum appeared at 300 nm wavelength, and the shape of the curves is different than in any of the other intervals of measurement. […]

[9] = Cytotoxicity screening test; format: cell-based; conditions: human
Description: as §11

[10] = tested on: HIV-1 (laboratory strain NL4-3); assay: microbe, parasite or virus in culture; format: cell-based
Method: The cell lines were maintained under standard cell culture conditions at 37 °C and 5% CO2 in a humid environment. Cells were subcultured twice or three times a week using the standard trypsinization procedure.

Structure (SMILES) | Gel formation [1] | inhibition at 25 µg/mL [2] | inhibition at 50 µg/mL [2] | inhibition at 100 µg/mL [2] | inhibition at 25 µg/mL ([3]; c = 25 µg·mL-1) | inhibition at 50 µg/mL [3] | inhibition at 100 µg/mL [3] | inhibition at 25 µg/mL [4] | inhibition at 50 µg/mL [4] | inhibition at 100 µg/mL [4] | inhibition at 25 µg/mL [5] | inhibition at 50 µg/mL [5] | inhibition at 100 µg/mL [5] | inhibition at 25 µg/mL ([6]; c = 25 µg·mL-1) | inhibition at 50 µg/mL [6] | inhibition at 100 µg/mL [6] | Irregularity in UV-VIS spectra (self-assembly) [8] | also measured
CC1(C)C=C2[C@H]3CC[C@@H]4[C@@]5(C)CCC(=O)C(C)(C)[C@@H]5CC[C@@]4(C)[C@]3(C)CC[C@@]2(C(=O)NCCOCCOCCOCCn2cc(CO[C@H]3CC[C@]4(C)[C@H]5CC=C6C7CC(C)(C)CC[C@]7(C(=O)O)CC[C@@]6(C)[C@]5(C)CC[C@H]4C3(C)C)nn2)CC1 (some centres unmarked) [6c] | produced a gel in glycerol | 0 to 1% | 25 ± 3.8% | 36 ± 5.4% | 13 ± 2% | 51 ± 7.7% | 27 ± 4% | 7 ± 1% | 19 ± 2.9% | 13 ± 2% | 12 ± 1.8% | 69 ± 10.4% | 60 ± 9% | 10 ± 1.5% | 18 ± 2.7% | 30 ± 4.5% |  | 
CC1(C)C=C2C3CC[C@@H]4[C@@]5(C)CC[C@H](OCc6cn(CCOCCOCCOCCNC(=O)[C@]78CCC(C)(C)C=C7[C@H]7CC[C@@H]9[C@@]%10(C)CCC(=O)C(C)(C)[C@@H]%10CC[C@@]9(C)[C@]7(C)CC8)nn6)C(C)(C)[C@@H]5CC[C@@]4(C)[C@]3(C)CC[C@@]2(C(=O)O)CC1 (some centres unmarked) [6d] | produced a gel in glycerol | 2 ± 0.3% | 14 ± 2.1% | 28 ± 4.2% | 25 ± 3.8% | 31 ± 4.7% | 0 to 1% | 1 ± 0.2% | 0 to 1% | 3 ± 0.5% | 0 to 1% | 0 to 1% | 0 to 1% | 9 ± 1.4% | 13 ± 2% | 0 to 1% | No substantial irregularity was detected | IC50 [7]: > 50 µM; IC50 ([9]; CEM T-lymphoblastic leukemia cells): > 50 µM; IC50 ([9]; G-361 malignant melanoma cells): 20 ± 0.6 µM; IC50 ([9]; HeLa cervical carcinoma cells): > 50 µM; IC50 ([9]; MCF7 breast carcinoma cells): > 50 µM
CC(C)OC(=O)[C@H](C)N[P@](=O)(CO[C@H](C)Cn1cnc2c(N)ncnc21)Oc1ccccc1 [tenofovir alafenamide, Tenofovir alafenamide, reference compound] |  |  |  |  |  |  |  |  |  |  |  |  |  |  |  |  |  | EC50 ([10]; Human immunodeficiency virus 1, NL43, MT4, read-out: EC50 ± SE against HIV-1): 0.0097 ± 0.0023 µM
CC1(C)CC[C@]2(C(=O)O)CC[C@]3(C)C(=CC[C@@H]4[C@@]5(C)CC[C@H](OCc6cn(CCOCCOCCOCCNC(=O)[C@]78CCC(C)(C)CC7C7=CC[C@@H]9[C@@]%10(C)CC[C@H](O)C(C)(C)[C@@H]%10CC[C@@]9(C)[C@]7(C)CC8)nn6)C(C)(C)[C@@H]5CC[C@]43C)C2C1 (some centres unmarked) [8a] | produced a gel in ethylene glycol | 17 ± 2.6% | 28 ± 4.2% | 32 ± 4.8% | > 50% | 55 ± 8.3% | 68 ± 10.2% | 0 to 1% | 0 to 1% | 0 to 1% | 21 ± 3.2% | 17 ± 2.6% | 14 ± 2.1% | > 50% | 24 ± 3.6% | 0 to 1% | Irregularity was detected | Inhibition of the microorganism ([3]; c = 25 µg·mL-1): 52 ± 7.8 ^e %; Inhibition of the microorganism ([6]; c = 25 µg·mL-1): 51 ± 7.7 ^e %; EC50 ([10]; Human immunodeficiency virus 1, NL43, MT4, HIV-1 NL4-3 in MT-4 cells, read-out: EC50 ± SE against HIV-1): 50.6 ± 7.8 µM
